Counter-ions that a name gives are not always drawn.
Experiments:
Experiment in all cases: MIC, agar dilution
Assay type in all cases: cell-based
[1] = test system: Acinetobacter calcoaceticus, 8333; details: Acinetobacter calcoaceticus, 8333, 18 h, K-10 agar, 10^4 CFU, 37°C, read-out: M.I.C.
Protocol: (§1) The following methodology is used to determine the minimum inhibitory concentration (hereinafter referred to as MIC) of the […] of this invention.
(§2) The test organisms are grown in approximately 15-20 ml of Antibiotic Assay broth (Difco) by inoculating (in tubes) the broth with a loopful of the organism from a BHI (Difco) agar slant. The inoculated tubes are incubated at 37°C for 18 to 20 hours. These cultures are assumed to contain 10^9 colony forming units (hereinafter CFU) per milliliter. The cultures are diluted 1:100 to give a final inoculum level of 10^4 CFU; dilutions are made with K-10 broth^*.
(§3) The compounds are dissolved in the appropriate diluent at a concentration of 1000 µg/ml. Twofold dilutions are made in K-10 broth resulting in a range from 1000 µg/ml to 0.5 µg/ml. 1.5 ml of each dilution is placed into individual square petri dishes to which 13.5 ml of K-10 agar^** is added. The final drug concentration in the agar ranges from 100 µg/ml to 0.05 µg/ml. Organism growth control plates containing agar only are prepared and inoculated before and after the test plates. The organisms are applied to the agar surface of each plate with the Denley Multipoint Inoculator (which delivers approximately 0.001 ml of each organism) resulting in a final inoculum level of 10^4 CFU on the agar surface.
(§4) The plates are incubated at 37 °C for 18 hours and the MIC's are determined. The MIC is the lowest concentration of compound inhibiting growth of the organism.
(§5) The tables that follow are tabulated results obtained when the B-lactams of this invention are tested against various organisms. The number following each organism refers to the number of the organism in the collection of E. R. Squibb & Sons,.Inc., Princeton, New Jersey. […] The symbol "N.T." means not tested.

[2] = test system: Citrobacter freundii, 9518; details: K-10 agar, 10^4 CFU, 37°C, 18 hours, read-out: M.I.C.
Protocol: as §1, §2, §3, §4, §5

[3] = test system: Enterobacter aerogenes, 10078; details: Klebsiella aerogenes, 10078, 18 h, Enterobacter aerogenes, 10078; K-10 agar, 10^4 CFU, 37°C, 18 hours; read-out: M.I.C.
Protocol: as §1, §2, §3, §4, §5

Escherichia coli, 10857 = details: Escherichia coli, 10857, 18 h, K-10 agar, 10^4 CFU, 37°C
Protocol: as §1, §2, §3, §4, §5

Escherichia coli, 10896 = details: K-10 agar, 10^4 CFU, 37°C, 18 hours
Protocol: as §1, §2, §3, §4, §5

Escherichia coli, 10909 = details: K-10 agar, 10^4 CFU, 37°C, 18 hours
Protocol: as §1, §2, §3, §4, §5

Escherichia coli, 8294 = details: Escherichia coli, 8294, 18 h, K-10 agar, 10^4 CFU, 37°C
Protocol: as §1, §2, §3, §4, §5

[4] = test system: Klebsiella aerogenes, 10440; details: K-10 agar, 10^4 CFU, 37°C, 18 hours, read-out: M.I.C.
Protocol: as §1, §2, §3, §4, §5

[5] = test system: Klebsiella pneumoniae, 9527; details: Klebsiella pneumoniae, 9527, 18 h, K-10 agar, 10^4 CFU, 37°C, read-out: M.I.C.
Protocol: as §1, §2, §3, §4, §5

Proteus mirabilis, 3855 = details: Proteus mirabilis, 3855, 18 h, K-10 agar, 10^4 CFU, 37°C, read-out: M.I.C.
Protocol: as §1, §2, §3, §4, §5

Proteus rettgeri, 8479 = details: Providencia rettgeri, K-10 agar, 10^4 CFU, 37°C, 18 hours, read-out: M.I.C.
Protocol: as §1, §2, §3, §4, §5

Proteus vulgaris, 9416 = details: K-10 agar, 10^4 CFU, 37°C, 18 hours, read-out: M.I.C.
Protocol: as §1, §2, §3, §4, §5

[6] = test system: Pseudomonas aeruginosa, 8329; details: K-10 agar, 10^4 CFU, 37°C, 18 hours, read-out: M.I.C.
Protocol: as §1, §2, §3, §4, §5

[7] = test system: Pseudomonas aeruginosa, 9545; details: Pseudomonas aeruginosa, 9545, 18 h, K-10 agar, 10^4 CFU, 37°C, read-out: M.I.C.
Protocol: as §1, §2, §3, §4, §5

Salmonella typhosa, 1195 = details: Salmonella enterica, TYPHOSA, 18 h, K-10 agar, 10^4 CFU, 37°C
Protocol: as §1, §2, §3, §4, §5

[8] = test system: Serratia marcescens, 9783; details: K-10 agar, 10^4 CFU, 37°C; for MIC: Serratia marcescens, 9783, 18 h, read-out: M.I.C.
Protocol: as §1, §2, §3, §4, §5

Shigella sonnei, 8449 = details: Shigella sonnei, 8449, 18 h, K-10 agar, 10^4 CFU, 37°C
Protocol: as §1, §2, §3, §4, §5

[9] = test system: Staphylococcus aureus, 10165; details: Staphylococcus aureus, 10165; K-10 agar, 10^4 CFU, 37°C, 18 hours; read-out: M.I.C.
Protocol: as §1, §2, §3, §4, §5

[10] = test system: Staphylococcus aureus, 1276; details: Staphylococcus aureus, 1276; K-10 agar, 10^4 CFU, 37°C, 18 hours; read-out: M.I.C.
Protocol: as §1, §2, §3, §4, §5

[11] = test system: Staphylococcus aureus, 2399; details: Staphylococcus aureus, 2399, 18 h, Staphylococcus aureus, 2399; K-10 agar, 10^4 CFU, 37°C, 18 hours; read-out: M.I.C.
Protocol: as §1, §2, §3, §4, §5

[12] = test system: Staphylococcus aureus, 2400; details: Staphylococcus aureus, 2400; K-10 agar, 10^4 CFU, 37°C, 18 hours; read-out: M.I.C.
Protocol: as §1, §2, §3, §4, §5

[13] = test system: Streptococcus faecalis, 9011; details: Enterococcus faecalis; Streptococcus faecalis, 9011; K-10 agar, 10^4 CFU, 37°C, 18 hours; read-out: M.I.C.
Protocol: as §1, §2, §3, §4, §5

[14] = test system: Enterobacter cloacae, 8236; details: Enterobacter cloacae, 8236, 18 h, K-10 agar, 10^4 CFU, 37°C
Protocol: as §1, §2, §3
(§6) The MIC is the lowest concentration of compound inhibiting growth of the organism.
(§7) The number following each organism refers to the number of the organism in the collection of E. R. Squibb & Sons,.Inc., Princeton, New Jersey. […] The symbol "N.T." means not tested.

Micrococcus luteus, 2495 = details: K-10 agar, 10^4 CFU, 37°C; for MIC: Micrococcus luteus, 2495, 18 h, read-out: M.I.C.
Protocol: as §1, §2, §3, §6, §7

[15] = test system: Streptococcus agalactiae, 9287; details: Streptococcus agalactiae, 9287, 18 h, K-10 agar, 10^4 CFU, 37°C, read-out: M.I.C.
Protocol: as §1, §2, §3, §6, §7

| Compound | MIC [1] [µg/mL] | MIC [2] [µg/mL] | MIC [3] [µg/mL] | MIC (Escherichia coli, 10857) [µg/mL] | MIC (Escherichia coli, 10896) [µg/mL] | MIC (Escherichia coli, 10909) [µg/mL] | MIC (Escherichia coli, 8294) [µg/mL] | MIC [4] [µg/mL] | MIC [5] [µg/mL] | MIC (Proteus mirabilis, 3855) [µg/mL] | MIC (Proteus rettgeri, 8479) [µg/mL] | MIC (Proteus vulgaris, 9416) [µg/mL] | MIC [6] [µg/mL] | MIC [7] [µg/mL] | MIC (Salmonella typhosa, 1195) [µg/mL] | MIC (Shigella sonnei, 8449) [µg/mL] | MIC [9] [µg/mL] | MIC [10] [µg/mL] | MIC [11] [µg/mL] | MIC [12] [µg/mL] | other results |
| --- | --- | --- | --- | --- | --- | --- | --- | --- | --- | --- | --- | --- | --- | --- | --- | --- | --- | --- | --- | --- | --- |
| C[C@@H]1[C@H](NC(=O)[C@H](NC(=O)N2CCN(NC(=O)OCc3ccccc3)C(=O)C2=O)c2ccccc2)C(=O)N1S(=O)(=O)O (relative stereo) [Example 20, [3S-[3α(R*),4α]]-[4-[[[2-[(4-methyl-2-oxo-1-sulfo-3-azetidinyl)amino]-2-oxo-1-phenylethyl]amino]carbonyl]-2,3-dioxo-1-piperazinyl]carbamic acid, phenylmethyl ester, potassium salt] | 50 | 3.1 | 6.3 | < 0.05 | 0.8 | 0.4 | 3.1 | 12.5 | 0.4 | 1.6 | 1.6 | < 0.05 | 100 | 3.1 | 1.6 | 1.6 | > 100 | 6.3 | 6.3 | 25 | MIC [8]: 3.1 µg/mL; MIC [13]: > 100 µg/mL; MIC [14]: 1.6 µg/mL; MIC (Micrococcus luteus, 2495): 3.1 µg/mL; MIC [15]: 3.1 µg/mL |
| C[C@@H]1[C@H](NC(=O)[C@H](NC(=O)N2CCN(N=Cc3ccco3)C2=O)c2ccccc2)C(=O)N1S(=O)(=O)O (relative stereo) [Example 21, [3S-[3α(R*),4α]]-3-[[[[[3-[(2-furanylmethylene)-amino]-2-oxo-1-imidazolidinyl]carbonyl]-amino]phenylacetyl]amino]-4-methyl-2-oxo-1-azetidinesulfonic acid, potassium salt] | 50 | 1.6 | 3.1 | < 0.05 | 0.4 | 0.2 | 1.6 | 1.6 | 0.2 | 0.8 | 1.6 | < 0.05 | 12.5 | 12.5 | 0.4 | 0.8 | 100 | 3.1 | 3.1 | 6.3 | MIC [8]: 3.1 µg/mL; MIC [13]: > 100 µg/mL; MIC [14]: 1.6 µg/mL; MIC (Micrococcus luteus, 2495): 3.1 µg/mL; MIC [15]: 0.4 µg/mL |
| CCN1CCN(C(=O)N[C@@H](C(=O)N[C@@H]2C(=O)N(S(=O)(=O)O)[C@@H]2C)c2ccccc2)C(=O)C1=O (relative stereo) [Example 22, [3S-[3α(R*),4α]]-3-[[[[(4-ethyl-2,3-dioxo-1-piperazinyl)carbonyl]amino]phenylacetyl]-amino]-4-methyl-2-oxo-1-azetidinesulfonic acid, potassium salt] | 12.5 | 3.1 | 6.3 | 0.1 | 1.6 | 0.4 | 3.1 | 12.5 | 0.1 | 0.4 | 0.2 | < 0.05 | 12.5 | 6.3 | 0.4 | 1.6 | 100 | 6.3 | 6.3 | 25 | MIC [8]: 6.3 µg/mL; MIC [13]: > 100 µg/mL; MIC [14]: 0.8 µg/mL; MIC (Micrococcus luteus, 2495): 6.3 µg/mL; MIC [15]: 6.3 µg/mL |
| C[C@H]1[C@H](NC(=O)OCc2ccccc2)C(=O)N1S(=O)(=O)O [Example 2, (3S-trans)-4-Methyl-2-oxo-3-[[(phenylmethoxy)carbonyl]-amino]-1-azetidinesulfonic acid, potassium salt] | > 100 | > 100 | > 100 | > 100 | > 100 | > 100 | > 100 | > 100 | > 100 | > 100 | > 100 | > 100 | > 100 | > 100 | > 100 | > 100 | > 100 | 100 | 100 | 100 | MIC [8]: > 100 µg/mL; MIC [13]: > 100 µg/mL; MIC [14]: > 100 µg/mL; MIC (Micrococcus luteus, 2495): 100 µg/mL; MIC [15]: 100 µg/mL |
| C[C@H]1[C@H](NC(=O)Cc2ccccc2)C(=O)N1S(=O)(=O)O [Example 3, (3S-trans)-4-Methyl-2-oxo-3-[(phenylacetyl)amino]-1-azetidinesulfonic acid, potassium salt] | > 100 | 100 | > 100 | 50 | 50 | 25 | 100 | 100 | 100 | 100 | 50 | 100 | > 100 | 50 | 50 | 50 | 100 | 50 | 50 | 50 | MIC [8]: 50 µg/mL; MIC [13]: > 100 µg/mL; MIC [14]: > 100 µg/mL; MIC (Micrococcus luteus, 2495): 25 µg/mL; MIC [15]: 25 µg/mL |
| CON=C(C(=O)NC1C(=O)N(S(=O)(=O)O)C1C)c1csc(N)n1 (stereo not drawn) [Example 5, [3S-[3α(Z),4β]]-3-[[2-Amino-4-thiazolyl) (methoxyimino)-acetyl]amino]-4-methyl-2-oxo-1-azetidinesulfonic acid, potassium salt] | 12.5 | 0.1 | 0.4 | < 0.05 | 0.1 | < 0.05 | 0.1 | 0.2 | 0.1 | 0.1 | < 0.05 | < 0.05 | 100 | 0.8 | < 0.05 | 0.1 | > 100 | 100 | 100 | 50 | M.I.C. ([8]; 18 hours, potassium salt): 0.8 µg/mL; MIC [13]: > 100 µg/mL; MIC [14]: 0.2 µg/mL; M.I.C. (Micrococcus luteus, 2495; 18 hours, potassium salt): 3.1 µg/mL; MIC [15]: 3.1 µg/mL |
